Source: article PMC10126264, “Synergistic effect and antibiofilm activity of the antimicrobial peptide K11 with conventional antibiotics against multidrug-resistant and extensively drug-resistant Klebsiella pneumoniae” (Frontiers in Cellular and Infection Microbiology, 2023)
Values after ≈ are worked out from the molar mass of the structure shown. Where two headings read alike, the source gives them in different places.

How the values were obtained:
[1] = test system: K. pneumoniae ATCC BAA-1706; assay type: cell-based, Klebsiella pneumoniae; details: compared to day 1
Description: The resistance development of K11, ciprofloxacin, and colistin was assessed according to the previously described protocol ([Pollard et al., 2012]). Briefly, MIC values for a K. pneumoniae ATCC BAA-1706 were first examined and recorded. […] This inoculum was subjected to another MIC assay. […] The process was repeated for 30 passages. The MIC values for K11 and antibiotics were recorded and plotted as the MIC fold change compared to day 1 of the experiment.

[2] = test system: MDR/XDR K. pneumoniae clinical isolates; assay: microbe, parasite or virus in culture; details: Klebsiella pneumoniae
Description: The ability of K11 to inhibit bacterial growth was determined by the broth microdilution method ([Clinical and Laboratory Standards Institute, 2018]). Briefly, a series of 2-fold dilutions of K11 were prepared from 1,024 to 2 µg/mL in cation-adjusted Mueller-Hinton broth (CAMHB), Then 50 µL of each peptide dilution was added to each well of polystyrene 96-well U-bottom microplates. The log-phase cultures were adjusted to 0.5 McFarland standard and diluted 1:100 in CAMHB to provide the density of 10^6 CFU/mL. Consequently, 50 µL of diluted bacterial suspension was added to wells containing 50 µL of peptide solution, followed by incubation for 20-24 h at 37°C. […] To evaluate MBC, a volume of 10 μL was taken from each well with no visible growth, inoculated on Mueller-Hinton agar (MHA) plates, and incubated at 37°C. The MBC was defined as the lowest concentration of antimicrobials that killed at least 99.9% of the initial inoculums ([Clinical and Laboratory Standards Institute, 1999]).

[3] = test system: MDR/XDR K. pneumoniae clinical isolates; assay: Antimicrobial susceptibility testing, disk diffusion (CLSI); assay type: cell-based, Klebsiella pneumoniae; details: all fifteen isolates, CLSI guidelines
Description: (§1) In this study, fifteen non-duplicate clinical isolates of MDR/XDR K. pneumoniae were obtained from the bacterial repository of the Division of Infectious Diseases and Tropical Medicine, Department of Medicine, Faculty of Medicine Siriraj Hospital, Mahidol University. […] Antimicrobial susceptibility testing was also carried out by the disk diffusion method according to CLSI guidelines ([Clinical and Laboratory Standards Institute, 2021]). Furthermore, all isolates were tested for colistin resistance by broth microdilution based on CLSI recommendations. […] The MDR bacteria was defined as bacteria that are resistant to at least one agent in three or more antimicrobial categories, while the XDR bacteria refer to bacteria that are resistant to at least one agent in all but two or fewer antimicrobial categories based on laboratory results. E. coli ATCC 25922 was used as a reference control strain for susceptibility testing. Other reference strains, including K. pneumoniae ATCC 70063 and K. pneumoniae ATCC BAA-1706 (bla KPC […]), were used as control strains throughout the study.

[4] = test system: MDR/XDR K. pneumoniae clinical isolates; assay: Colistin MIC, broth microdilution (CLSI); assay type: cell-based, Klebsiella pneumoniae; details: all fifteen isolates, resistance defined as MIC ≥4 µg/mL
Description: as §1

[5] = ref Witherell et al., 2021; cited from earlier work
Description: K11 is a synthetic peptide derived from natural AMPs (cecropin A1, melittin, and maganin 2), composed of 20 amino acids ([…]-NH2). […] Moreover, K11 has also been successfully used in vivo as a topic hydrogel solution against Acinetobacter baumannii-infected wounds ([Rishi et al., 2018]).

| Compound | antimicrobial susceptibility profile [3] | other results |
| --- | --- | --- |
| O=C(O)c1cn(C2CC2)c2cc(N3CCNCC3)c(F)cc2c1=O [ciprofloxacin] | – | MIC fold change ([1]; after 7 serial passages at 0.5×MIC): 16 fold; MIC fold change ([1]; after 12 passages at 0.5×MIC, maintained until 30 passages): 64 fold |
| CO[C@H]1/C=C/O[C@@]2(C)Oc3c(C)c(O)c4c(O)c(c(/C=N/N5CCN(C)CC5)c(O)c4c3C2=O)NC(=O)/C(C)=C\C=C\[C@H](C)[C@H](O)[C@@H](C)[C@@H](O)[C@@H](C)[C@H](OC(C)=O)[C@@H]1C [rifampicin] | – | MIC [2]: 32 µg/mL (≈ 38.9 µM) |
| CC(C)(O/N=C(\C(=O)N[C@@H]1C(=O)N2C(C(=O)[O-])=C(C[n+]3ccccc3)CS[C@H]12)c1csc(N)n1)C(=O)O [ceftazidime] | resistant | – |
| C[C@@H](O)[C@H]1C(=O)N2C(C(=O)O)=C(S[C@@H]3CN[C@H](C(=O)N(C)C)C3)[C@H](C)[C@H]12 [meropenem, reference compound] | – | MIC [2]: 64 µg/mL (≈ 167 µM) |
| colistin [reference compound] | – | MICs, all isolates [4]: ≥ 4 µg/mL; concentration showing significant hemolytic activity [5]: more than 100 μg/mL |
| C[C@H]1[C@H](NC(=O)/C(=N\OC(C)(C)C(=O)O)c2csc(N)n2)C(=O)N1S(=O)(=O)O [aztreonam] | resistant | – |
| CO[C@@]1(NC(=O)Cc2cccs2)C(=O)N2C(C(=O)O)=C(COC(N)=O)CS[C@@H]21 [cefoxitin] | resistant | – |
| C[C@@H](O)[C@H]1C(=O)N2C(C(=O)O)=C(S[C@@H]3CN[C@H](C(=O)Nc4cccc(C(=O)O)c4)C3)[C@H](C)[C@H]12 [ertapenem] | resistant | – |
| CO/N=C(\C(=O)N[C@@H]1C(=O)N2C(C(=O)[O-])=C(C[N+]3(C)CCCC3)CS[C@H]12)c1csc(N)n1 [cefepime] | resistant | – |
| CO/N=C(\C(=O)N[C@@H]1C(=O)N2C(C(=O)O)=C(CSc3nc(=O)c(=O)[nH]n3C)CS[C@H]12)c1csc(N)n1 [ceftriaxone] | resistant | – |
| O=C(N[C@H](CO)[C@H](O)c1ccc([N+](=O)[O-])cc1)C(Cl)Cl [chloramphenicol] | resistant | MIC [2]: 16 µg/mL (≈ 49.5 µM) |
